BindingDB's records for doi:10.1016/j.ab.2009.08.013 (Novartis Institute For Tropical Diseases, 2009)
Non-standard residues stand in square brackets, D forms with d. Residues, ends and D or L forms follow the SMILES beside them. *: point of attachment. Nle = CCCC[C@H](N)C(=O)O; Bz = O=C(c1ccccc1)*

Experiments:
[1] = molecular target: T1, Genome polyprotein [1066-1250,R1182K]/[1394-1440,K1405R,D1408E] (dengue virus type 2, UniProt P14340+P27914, D1408E/K1405R/R1182K); assay: Enzyme Inhibition Assay; conditions: pH 7.5; 37 °C
T1 construct: 1066-1250; 1394-1440
T1 sequence (P14340 1394-1440, looked up, stated change not applied): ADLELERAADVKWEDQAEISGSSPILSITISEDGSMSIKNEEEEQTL
T1 sequence (P27914 1066-1250, looked up, stated change not applied): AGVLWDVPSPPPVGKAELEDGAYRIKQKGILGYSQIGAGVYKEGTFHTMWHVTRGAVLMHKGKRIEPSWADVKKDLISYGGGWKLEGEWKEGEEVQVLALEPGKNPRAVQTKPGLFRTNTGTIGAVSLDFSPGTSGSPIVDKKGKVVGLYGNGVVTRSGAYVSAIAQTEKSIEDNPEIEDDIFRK
Description: (§1) Inhibitors were assayed in a 96-well plate format. […] The reaction was initiated by the addition of substrate Bz-nKRR-AMC. Reaction progress was monitored continuously by following the increase in fluorescence on a Tecan Safire2 plate reader. IC50 values of inhibitors were derived by fitting the calculated initial velocities to a nonlinear regression curve using GraphPad Prism software. Each point of the IC50 curve was measured in duplicate during a single experiment.

[2] = molecular target: T2, Genome polyprotein [1394-1440]/[1476-1660,T1585M] (dengue virus type 3, UniProt P27915+Q6YMS4, T1585M); assay: Enzyme Inhibition Assay
T2 construct: 1394-1440; 1476-1660
T2 sequence (P27915 1394-1440, stated change not applied): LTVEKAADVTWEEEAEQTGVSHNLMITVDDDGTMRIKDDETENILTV
T2 sequence (Q6YMS4 1476-1660, looked up, stated change not applied): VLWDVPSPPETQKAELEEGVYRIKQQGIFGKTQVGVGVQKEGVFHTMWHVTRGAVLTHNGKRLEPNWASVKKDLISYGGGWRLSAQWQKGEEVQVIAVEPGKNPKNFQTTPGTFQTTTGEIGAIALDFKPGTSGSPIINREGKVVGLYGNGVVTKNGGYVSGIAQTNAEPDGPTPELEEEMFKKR
Description: as §1

[3] = molecular target: T3, Genome polyprotein [1394-1440]/[1476-1660] (dengue virus type 4, UniProt Q58HT7); assay: Enzyme Inhibition Assay
T3 construct: 1394-1440; 1476-1660
T3 sequence (Q58HT7 1394-1440): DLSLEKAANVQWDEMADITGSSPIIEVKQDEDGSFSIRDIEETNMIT
T3 sequence (Q58HT7 1476-1660): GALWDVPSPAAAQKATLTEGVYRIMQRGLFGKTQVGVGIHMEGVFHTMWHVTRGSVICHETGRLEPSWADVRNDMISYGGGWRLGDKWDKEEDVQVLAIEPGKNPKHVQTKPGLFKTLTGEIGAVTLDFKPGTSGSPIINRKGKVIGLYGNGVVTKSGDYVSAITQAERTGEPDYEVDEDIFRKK
Description: as §1

[4] = molecular target: T4, Genome polyprotein [1393-1439,E1407V]/[1476-1660,R1508K,A1566M] (dengue virus type 1, UniProt P17763+P33478, A1566M/E1407V/R1508K); assay: Enzyme Inhibition Assay; conditions: pH 7.5; 37 °C
T4 construct: 1393-1439; 1476-1660
T4 sequence (P17763 1476-1660, looked up, stated change not applied): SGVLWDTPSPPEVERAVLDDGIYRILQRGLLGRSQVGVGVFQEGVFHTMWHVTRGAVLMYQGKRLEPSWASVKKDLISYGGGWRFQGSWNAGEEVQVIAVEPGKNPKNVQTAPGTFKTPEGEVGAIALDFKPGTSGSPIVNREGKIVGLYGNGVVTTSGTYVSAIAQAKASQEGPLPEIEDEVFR
T4 sequence (P33478 1393-1439, looked up, stated change not applied): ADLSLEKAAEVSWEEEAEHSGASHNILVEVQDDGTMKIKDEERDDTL
Description: as §1

[5] = molecular target: T1, Genome polyprotein [1066-1250,R1182K]/[1394-1440,K1405R,D1408E]; assay: Enzyme Inhibition Assay (IC50) and Fluorescence Quench Assay (KD); conditions: pH 7.5; 37 °C
Description: (§2) Inhibitors were assayed in a 96-well plate format. […] The reaction was initiated by the addition of substrate Bz-nKRR-AMC. Reaction progress was monitored continuously by following the increase in fluorescence on a Tecan Safire2 plate reader. IC50 values of inhibitors were derived by fitting the calculated initial velocities to a nonlinear regression curve using GraphPad Prism software. Each point of the IC50 curve was measured in duplicate during a single experiment. Compounds were tested for binding (KD) using fluorescence quench assay. Two protein solutions were prepared (2-5 uM protein with and without 40 uM compound) and were mixed in a microplate to obtain 12 different compound concentrations ranging from 0 to 40 uM. Then each dilution comprising 90 ul was transferred to a UV-Star 96-well microplate. […] Binding curves were analyzed according to the two-state model describing the formation of a 1:1 complex. Kd values were obtained from curve-fit of binding isotherms.

[6] = molecular target: T5, Genome polyprotein [1424-1463]/[1502-1685] (West Nile virus, UniProt P06935); assay: as above; conditions: pH 7.5; 37 °C
T5 construct: 1424-1463; 1502-1685
T5 sequence (P06935 whole entry) 1: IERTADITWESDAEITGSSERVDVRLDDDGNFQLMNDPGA
T5 sequence (P06935 whole entry) 2: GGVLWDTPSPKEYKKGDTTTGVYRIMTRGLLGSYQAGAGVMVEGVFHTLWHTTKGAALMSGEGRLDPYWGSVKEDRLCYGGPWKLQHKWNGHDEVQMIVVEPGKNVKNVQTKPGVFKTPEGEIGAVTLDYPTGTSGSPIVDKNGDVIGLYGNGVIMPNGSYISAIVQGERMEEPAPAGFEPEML
Description: as §2

[7] = molecular target: T5, Genome polyprotein [1424-1463]/[1502-1685]; assay: Enzyme Inhibition Assay; conditions: pH 7.5; 37 °C
Description: as §1

Row | SMILES | IC50 [1] [µM] | IC50 [2] [µM] | IC50 [3] [µM] | IC50 [4] [µM] | IC50 [5] [µM] | Kd [5] [µM] | Kd [6] [µM] | IC50 [6] [µM] | IC50 [7] [µM]
1 | CCCC[C@H](NC(=O)c1ccccc1)C(=O)N[C@@H](CCCCN)C(=O)N[C@@H](CCCNC(=N)N)C(=O)N[C@H](C=O)CCCNC(=N)N [Bz-Nle-Lys-Arg-Arg-H] (Bz-[Nle]KRR-aldehyde) | 8.9 | 7.9 | 1.4 | 11.8 | – | – | – | – | –
2 | CC1CNC(c2ccc(Nc3nnc(Nc4ccc(C5=NC(C)CN5)cc4)c4ccccc34)cc2)=N1 (configuration not stated) [phthalazine-based compound, 1] | – | 17.5 | 32.8 | 36.4 | 6 | 7.2 | 21 | – | –
3 | c1ccc(-c2ccc(Nc3nnc(Nc4ccc(C5=NCCN5)cc4)c4ccccc34)cc2)cc1 [phthalazine-based compound, 2] | – | 1.6 | 2 | 2 | 2.3 | – | – | 3.6 | –
4 | c1ccc2c(Nc3ccc(C4=NC5CCCCC5N4)cc3)nnc(Nc3ccc(C4=NC5CCCCC5N4)cc3)c2c1 (configuration not stated) [phthalazine-based compound, 3] | – | 8.5 | 13.6 | 10.7 | 1.1 | 7.7 | 90 | 22 | –
5 | c1ccc2c(Nc3ccc4c(c3)CNCC4)nnc(Nc3ccc(C4=NCCN4)cc3)c2c1 [phthalazine-based compound, 4] | – | 100 | 64.8 | 233 | 27.4 | 22.9 | 4.6 | – | –
6 | NCc1ccc(Nc2nnc(Nc3ccc(C4=NCCN4)cc3)c3ccccc23)cc1 [phthalazine-based compound, 5] | – | 8.7 | 8.2 | 12.3 | 5.8 | 18.6 | 100 | – | –
7 | c1ccc2c(Nc3ccc4c(c3)CCNC4)nnc(Nc3ccc(C4=NCCN4)cc3)c2c1 [phthalazine-based compound, 6] | – | 86 | 43 | 170 | 55 | 54 | 7 | 6.2 | –
8 | COC(=O)c1ccc(-c2ccc(Nc3nnc(Nc4ccc(C5=NCCN5)cc4)c4ccccc34)cc2)cc1 [phthalazine-based compound, 7] | – | 1 | 1.3 | 2.72 | 1.6 | – | – | 2.2 | –
9 | c1ccc2c(Nc3ccc(C4=NCCN4)cc3)nnc(Nc3ccc(C4=NCCN4)cc3)c2c1 [phthalazine-based compound, 8] | – | 27.9 | 19.8 | 21.4 | 10.2 | 16.3 | – | – | 16
10 | Nc1ccc2c(Nc3ccc(C4=NCCN4)cc3)nnc(Nc3ccc(C4=NCCN4)cc3)c2c1 [phthalazine-based compound, 9] | – | > 100 | > 100 | > 100 | > 100 | 100 | – | – | –
